We go through 18 molecules from publication PMC5082338, “Different Culture Metabolites of the Red Sea Fungus Fusarium equiseti Optimize the Inhibition of Hepatitis C Virus NS3/4A Protease (HCV PR)” (Marine Drugs, 2016).

For one assay, the system named is Bacillus megaterium. The assay can be described thus: Antimicrobial activity, inhibition zone. Conditions: Priestia megaterium; for zone of inhibition: read-out: Inhibition zone, Bacillus megaterium. In kind it is cell-based. An excerpt:
Table 1 Antimicrobial potential of the culture extracts and isolated compounds from F. equiseti. | column: Gram-Positive Bacteria / Bacillus megaterium

Another assay deals with Bacillus subtilis. The assay can be described thus: Antimicrobial activity, inhibition zone. The format is cell-based.
In the next assay the test system is Staphylococcus aureus. The assay can be described thus: Antimicrobial activity, inhibition zone. Conditions: for zone of inhibition: read-out: Inhibition zone, Staphylococcus aureus. In kind it is cell-based. An excerpt:
Table 1 Antimicrobial potential of the culture extracts and isolated compounds from F. equiseti. | column: Gram-Positive Bacteria / Staphylococcus aureus

The target in another assay is HCV NS3/4A protease (Hepatitis C virus genotype 1b (strain HC-J4), UniProt O92972). Description: HCV protease inhibitory activity (SensoLyte 520 HCV protease assay kit, fluorimetric). The format is biochemical. Conditions: for IC50: recHCV PR, 37 °C, 30 min; for Inhibition of HCV PR (in words): compared to other constituents. An excerpt: HCV NS3 is considered as a serine protease, its active site contains serine 139 amino acid residues, which attack the substrate by forming a reversible covalent bond with its amino acid residues. To be activated, the HCV NS3 has to be coupled with an activating protein named (4A), and is therefore given the name HCV NS3/4A, which is active only in its heterodimer form. The culture extracts of the endophytic fungus F. equiseti and their isolated compounds were screened for inhibition of HCV protease using the hepatitis virus C NS3 protease inhibitor 2 as a positive control. Moreover, the selectivity of the active metabolites toward HCV NS3/4A protease (viral protease) and not human serine proteases such as trypsin and chymotrypsin has been confirmed through investigating the inhibitory activity of these extracts and/or their isolated chemical constituents on human recombinant Trypsin.
Chain of HCV NS3/4A protease (O92972 1027-1207, other chains not shown): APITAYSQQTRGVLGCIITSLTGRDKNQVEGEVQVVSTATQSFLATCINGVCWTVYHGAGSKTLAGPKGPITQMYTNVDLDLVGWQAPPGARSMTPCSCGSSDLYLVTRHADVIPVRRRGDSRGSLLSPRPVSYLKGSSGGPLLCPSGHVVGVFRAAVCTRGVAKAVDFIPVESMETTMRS
(§1) Sensolyte™ 520 HCV Protease assay kit Fluorimetric (cat#AS-71145), HCV NS3/4A protease and Sensolyte™, Green protease Assay Kit Fluorimetric (cat#AS-71124), and Hepatitis Virus C NS3 protease inhibitor 2 (cat#AS-25346) were purchased from AnaSpec Inc., San Jose, CA, USA. Chymotrypsin inhibitor (Soybean trypsin) was purchased from Sigma Aldrich Co. (St. Louis, MO, USA), and Becton Dickinson Falcon™ (Tokyo, Japan). Microtest 384-well 120 μL black assay plates, no lid, non-sterile, were purchased from Becton Dickinson Inc, Franklin Lakes, NJ, USA. Culture media: Czapek agar, bacteriological peptone, malt extract, yeast extract powder, nutrient agar and potato dextrose broth were procured from Lab M, Bury, UK; Glucose, (Acros Organics, Geel, Belgium), K2HPO4 (Laboratory Reagent, Mumbai, India), MgSO4 (Oxford Laboratory Reagent, Mumbai, India), agar (Sisco Research Laboratories Pvt. Ltd., Mumbai, India).
Samples of 2 μL of culture broth fungus extracts and isolated compounds dissolved in dimethyl sulfoxide (DMSO) were placed in each well of a 384-well microplate, then 8 μL of recHCV PR (0.5 μg/mL) were added, and the plate was briefly agitated. Finally, 10 μL of the freshly prepared substrate [Ac-Asp-Glu-Dap (QXLTM520)-Glu-Glu-Abu-COO-Ala-Ser-Cys(5-FAMsp)-NH2] were added with sequential rotational shaking. The reaction mixture was incubated at 37 °C for 30 min. The fluorimetric analyses were performed on an automated TECAN GENios plate reader (Männedorf, Switzerland) with excitation and emission wavelengths at 485 and 520 nm, respectively. Each sample was tested in triplicate. HCV PR inhibition (%) was calculated using the following equation: % Inhibition = (Fsubstrate − Ftestsample) × 100/Fsubstrate where Fsubstrate is the fluorescence of the enzyme and substrate only, and Ftestsample is the fluorescence of the assay mixture with the added sample.

The target of assay [1] is T1, human recombinant Trypsin (Homo sapiens, UniProt P07477).
T1 construct: purchased AnaSpec Inc., San Jose, CA, USA AS-71124 (Green protease Assay Kit; no catalogue number for trypsin itself)
The assay can be described thus: Green protease assay (trypsin inhibitory activity). Conditions: 37 °C, 30 min. In kind it is biochemical. The protocol:
as §1, with “Chymotrypsin” for “Sensolyte™ 520 HCV Protease assay kit Fluorimetric (cat#AS-71145), HCV NS3/4A protease and Sensolyte™, Green protease Assay Kit Fluorimetric (cat#AS-71124), and Hepatitis Virus C NS3 protease inhibitor 2 (cat#AS-25346) were purchased from AnaSpec Inc., San Jose, CA, USA. Chymotrypsin”
Then 17.5 μL of assay buffer and 2.5 μL of trypsin (0.1 U/μL) were added and the plate was briefly agitated. […] The positive control was the soybean trypsin-chymotrypsin inhibitor. Inhibition was calculated as above for HCV PR assay.

Another assay deals with Candida albicans. Description: Antimicrobial activity, inhibition zone. The format is cell-based. Conditions: oxytetracycline control 30 μg.
Where [2] appears, read: Bacillus subtilis, oxytetracycline control 30 μg.
[3] abbreviates: read-out: IC50 HCV Protease Inhibitory Activity.

Usually IC50 stands for the concentration that inhibits the measured activity by half.

Where “and” joins values, the source holds several entries; their conditions need not be identical. Equal values may be shown once. Read-outs that look alike come from different tables or passages of the source. Peptide text beside a SMILES is read from it.

Consider `CN(C)[C@@H]1C(O)=C(C(N)=O)C(=O)[C@@]2(O)C(O)=C3C(=O)c4c(O)cccc4[C@@](C)(O)[C@H]3[C@H](O)[C@@H]12` [Oxytetracycline, reference compound], for which the zone of inhibition in the assay on Bacillus megaterium (oxytetracycline control 30 μg) amounted to 20 mm; in the assay with Bacillus subtilis (setting [2]), 18 mm; with Staphylococcus aureus (oxytetracycline control 30 μg), 17 mm.

Regarding `CC(C)CC1NC(=O)C2CCCN2C(=O)C(Cc2ccccc2)NC(=O)C2CCCN2C1=O` (stereo not drawn) [compound 5, cyclo[Phenylalanyl-Pro-Leu-Pro]] (cyclo(FPLP); configuration not given here), the zone of inhibition in the assay with Bacillus megaterium (oxytetracycline control 30 μg) is 10 mm; in the assay with Staphylococcus aureus (oxytetracycline control 30 μg) it was 9 mm; in the assay with Candida albicans, 12 mm. The IC50 on HCV NS3/4A protease (setting [3]) was 29.4 µM and 29.5 µM; in assay [1] it was 226 ± 4.26 µM.

Take `OCc1ccc(-c2nccc3c2[nH]c2ccccc23)o1` [compound 16, perlolyrin]: the zone of inhibition in the assay on Bacillus megaterium (oxytetracycline control 30 μg) stood at 9 mm; in the assay with Bacillus subtilis (setting [2]), 8 mm; with Staphylococcus aureus (oxytetracycline control 30 μg), 14 mm; in the assay with Candida albicans, 10 mm. In addition, the IC50 at HCV NS3/4A protease (setting [3]) is 37.8 µM and 37.9 µM; in assay [1], above 1000 µM.

On to `Cc1cc(O)c2c(c1)C(=O)c1cccc(O)c1C2=O` [compound 13, chrysophanol], for which the zone of inhibition in the assay on Bacillus megaterium (oxytetracycline control 30 μg) was found to be 10 mm; with Staphylococcus aureus (oxytetracycline control 30 μg), 15 mm; in the assay with Candida albicans, 11 mm. The IC50 at HCV NS3/4A protease (setting [3]) was above 1000 µM.

With `CCO[C@@H]1O[C@H](CO)[C@@H](O)[C@H](O)[C@H]1O` [compound 19, ethyl-O-β-glucoside], the IC50 at HCV NS3/4A protease (setting [3]) is above 1000 µM.

Take `CC(C)CC1NC(=O)C(C)NC1=O` [compound 1, cyclo-L-Ala-L-Leu]: the zone of inhibition at 30 µg/disc with Bacillus megaterium (oxytetracycline control 30 μg) stood at 12 mm; in the assay with Candida albicans, 13 mm. At HCV NS3/4A protease, the “Inhibition of HCV PR (in words)” value was “inactive”. On HCV NS3/4A protease (setting [3]), the IC50 was determined as 58.3 ± 3.51 µM.

Take `CC(C=CC=C(C)C(O)C(C)C1CC(O)C(C)=CC=CC(C)C2CC(CC=CC(=O)O1)CC(=O)O2)=Cc1coc(C)n1` (stereo not shown) [compound 6, 17-demethyl-2,11-dideoxy-rhizoxin]: the zone of inhibition in the assay with Bacillus megaterium came out at 8 mm; in the assay with Staphylococcus aureus, 12 mm; in the assay on Candida albicans, 19 mm. The IC50 turned out to be 34.4 µM at HCV NS3/4A protease (IC50 HCV Protease Inhibitory Activity) and 145 ± 3.66 µM in assay [1].

Take `CC1=C(O)C(=O)C(Cl)=C(O)C1=O` [compound 11, 5-Chloro-3,6-dihydroxy-2-methyl-1,4-benzoquinone]: the IC50 at HCV NS3/4A protease (setting [3]) was found to be 35.1 µM; in assay [1], 294.8 ± 2.87 µM.

`Nc1ncnc2c1ncn2[C@@H]1O[C@H](CO)C[C@H]1O` [compound 17, cordycepin]: the zone of inhibition in the assay on Bacillus megaterium (oxytetracycline control 30 μg) worked out at 11 mm; with Bacillus subtilis (setting [2]) it was 9 mm; in the assay on Staphylococcus aureus (oxytetracycline control 30 μg), 16 mm; in the assay with Candida albicans it was 14 mm. Also, the half-inhibitory concentration (IC50) on HCV NS3/4A protease (setting [3]) is 22.3 µM and 22.4 µM; in assay [1] it was above 1000 µM.

Take `CC[C@@H](CC[C@@H](C)C1CCC2C3CC=C4C[C@@H](O[C@@H]5O[C@H](CO)[C@@H](O)[C@H](O)[C@H]5O)CC[C@]4(C)C3CC[C@@]21C)C(C)C` (stereo partly drawn) [compound 9, β-sitosterol 3-O-β-glucoside]: the zone of inhibition in the assay with Bacillus megaterium (oxytetracycline control 30 μg) came to 14 mm; in the assay with Bacillus subtilis (setting [2]), 11 mm; with Staphylococcus aureus (oxytetracycline control 30 μg), 9 mm; in the assay on Candida albicans, 10 mm. The “Inhibition of HCV PR (in words)” value at HCV NS3/4A protease is “inactive”. On HCV NS3/4A protease (setting [3]), the IC50 was found to be 76.6 ± 3.78 µM.

Consider `O=C1N[C@H](Cc2ccc(O)cc2)C(=O)N2CCC[C@H]12` [compound 15, cyclo(L-Tyr-L-Pro)], for which the zone of inhibition at 30 µg/disc in the assay on Bacillus megaterium (oxytetracycline control 30 μg) turned out to be 8 mm; in the assay on Staphylococcus aureus (oxytetracycline control 30 μg), 11 mm; in the assay with Candida albicans it was 13 mm. Further, the IC50 at HCV NS3/4A protease (setting [3]) is 18.2 ± 1.7 µM; in assay [1] it was 37.9 ± 3.8 µM.

For `COc1cc(O)c2c(=O)c3c(C)cc(O)cc3oc2c1` [compound 12, griseoxanthone C], the zone of inhibition at 30 µg/disc was determined as 10 mm in the assay with Bacillus megaterium (oxytetracycline control 30 μg) and 13 mm in the assay with Bacillus subtilis (setting [2]). The IC50 was 19.8 µM and 19.9 µM at HCV NS3/4A protease (setting [3]); 51.3 µM in assay [1].

`CC(C)[C@@H]1NC(=O)[C@@H]2CCCN2C1=O` [compound 2, cyclo(L-Pro-L-Val)]: the zone of inhibition came to 11 mm in the assay with Bacillus megaterium (oxytetracycline control 30 μg), 18 mm in the assay on Bacillus subtilis (setting [2]) and 9 mm in the assay on Candida albicans. Moreover, the “Sensitivity of B. subtilis (in words)” value in the assay on Bacillus subtilis was “highly sensitive”. For the same molecule, the IC50 is 23.2 µM and 23.3 µM on HCV NS3/4A protease (setting [3]); 54.2 ± 1.88 µM in assay [1].

Consider `Nc1ncnc2c1ncn2C1OC(CO)C(O)C1O` (stereo not shown) [compound 18, ara-A], for which the zone of inhibition was 12 mm with Bacillus megaterium (oxytetracycline control 30 μg), 12 mm in the assay with Bacillus subtilis (setting [2]) and 10 mm in the assay with Staphylococcus aureus (oxytetracycline control 30 μg). In addition, the IC50 at HCV NS3/4A protease (setting [3]) came out at 24.5 µM; in assay [1] it was 138 ± 2.49 µM.

As to `O=C1c2cc(O)cc(O)c2C(=O)c2c(O)cc(CO)cc21` [compound 14, ω-hydroxyemodin], the zone of inhibition with Bacillus megaterium (oxytetracycline control 30 μg) came out at 17 mm; with Bacillus subtilis (setting [2]) it was 9 mm; in the assay on Staphylococcus aureus (oxytetracycline control 30 μg), 12 mm; in the assay with Candida albicans, 18 mm. Also, the IC50 at HCV NS3/4A protease (setting [3]) is 10.7 µM; in assay [1], 48.5 µM.

For the molecule `CC(C)[C@@H](C)CC[C@@H](C)C1CCC2C3=CC=C4C[C@@H](O)CC[C@]4(C)C3CC[C@@]21C` (stereo partly drawn) [compound 8, ergostra-5,7-dien-3β-ol], the “Inhibition of HCV PR (in words)” value on HCV NS3/4A protease was “inactive”. Besides, the IC50 at HCV NS3/4A protease (setting [3]) was 77.1 ± 4.55 µM.

Regarding `Cc1c[nH]c(=O)[nH]c1=O` [compound 4, thymine], the “Inhibition of HCV PR (in words)” value at HCV NS3/4A protease was “inactive”. For the same molecule, the IC50 on HCV NS3/4A protease (setting [3]) was found to be 51.8 ± 2.49 µM.

B1: T-I: soybean trypsin-chymotrypsin inhibitor (positive control for trypsin) (protein)
chain: DDESSKPCCDQCACTKSNPPQCRCSDMRLNSCHSACKSCICALSYPAQCFCVDITDFCYEPCKPSEDDKEN
modifications: mature limits and check
For the molecule B1, in assay [1], the IC50 is 0.5 µM.
